Assay results from PubChem BioAssay (NCI).
Values joined by “and” are separate entries in the source; they are usually repeats but may differ in a detail not shown here. Equal entries are not always repeated.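 Five concentrations, 48 hours, 96-well plates. The concentration for 50% growth inhibition is given as GI50. Definition used: TGI = concentration required for complete inhibition of growth.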

Tests used:
Test in all cases: growth of human tumour cells (NCI), 48 h
HCT-15 colon = test system: HCT-15 colon
IGROV1 ovarian = test system: IGROV1 ovarian
HL-60(TB) leukemia = test system: HL-60(TB) leukemia
CCRF-CEM leukemia = test system: CCRF-CEM leukemia
HCT-116 colon = test system: HCT-116 colon
HT29 colon = test system: HT29 colon
HOP-92 NSCLC = test system: HOP-92 NSCLC
MDA-MB-231 breast = test system: MDA-MB-231 breast
DU-145 prostate = test system: DU-145 prostate
MCF7 breast = test system: MCF7 breast

| SMILES | TGI (HCT-15 colon) [µM] | TGI (IGROV1 ovarian) [µM] | TGI (HL-60(TB) leukemia) | TGI (CCRF-CEM leukemia) | TGI (HCT-116 colon) [µM] | TGI (HT29 colon) [µM] | GI50 (HOP-92 NSCLC) [µM] | TGI (HOP-92 NSCLC) [µM] | GI50 (HT29 colon) [µM] | GI50 (HCT-15 colon) [µM] | GI50 (IGROV1 ovarian) [µM] | GI50 (MDA-MB-231 breast) [µM] | TGI (MDA-MB-231 breast) [µM] | GI50 (HL-60(TB) leukemia) [µM] | GI50 (HCT-116 colon) [µM] | GI50 (DU-145 prostate) [µM] | TGI (DU-145 prostate) [µM] | GI50 (MCF7 breast) [µM] | TGI (MCF7 breast) [µM] | GI50 (CCRF-CEM leukemia) [µM] |
| --- | --- | --- | --- | --- | --- | --- | --- | --- | --- | --- | --- | --- | --- | --- | --- | --- | --- | --- | --- | --- |
| CCOC(=O)C(C)(C)Oc1ccc2c(-c3ccc(Cl)cc3)c(-c3ccc(Cl)cc3)c(=O)oc2c1 | > 100 | > 100 | > 100 µM | > 100 µM | > 100 | > 100 | – | – | – | – | – | – | – | – | – | – | – | – | – | – |
| CC(=O)[O-].[Zn].c1ccc(/C(=N\Nc2ccccn2)c2ccccn2)cc1 | 11.6 | 0.272 | 0.0048 µM and 0.0138 µM | 0.22 µM and 1.22 µM | 1.26 | 4.13 | 0.0122 | 13.3 | 1.09 | – | – | – | – | – | – | – | – | – | – | – |
| COc1nc2c(nc(N)n2C2OCC(O)C(O)C2O)c(=O)n1C (configuration not stated) | – | > 100 | > 100 µM | > 100 µM | > 100 | > 100 | – | > 100 | – | – | – | – | – | – | – | – | – | – | – | – |
| N#Cc1nc2c(S(=O)(=O)c3ccccc3)c(N)n(Cc3ccc(Cl)cc3)c2nc1C#N | > 50 | 42.3 | > 50 µM | – | > 50 | – | 12.3 | 46.2 | – | 24.2 | 9.65 | 5.08 | 14.9 | 47.3 | 17.9 | 15 | > 50 | 7.38 | > 50 | – |
| COc1ccc2c(c1)c(-c1ccc(-c3cn(C)c4ccc(OC)cc34)[nH]1)cn2C | 3.91 | 4.35 | 5.69 µM | 5.8 µM | 12.7 | 42 | 2.58 | 7.21 | 9.38 | 1.84 | 1.89 | – | – | 2.36 | 3.04 | 10.6 | 31.1 | 5.18 | 24.4 | 2.03 |
| CCOC(=O)N1C(c2ccccc2)C=CC(c2ccccc2)N1C(=O)OCC (configuration not stated) | > 100 | > 100 | – | > 100 µM | > 100 | > 100 | – | > 100 | – | – | – | – | – | – | – | – | – | – | – | – |
| CS/C(c1ccccc1)=[N+](\[O-])Cc1ccccc1 | 32.9 | > 100 | > 100 µM | > 100 µM | > 100 | > 100 | – | > 100 | – | – | – | – | – | – | – | – | – | – | – | – |
| COc1cc(/C=C\c2ccc(Br)cc2)cc(OC)c1OC | 34.7 | > 100 | 0.0032 µM | 13.8 µM | > 100 | 15 | – | > 100 | – | – | – | – | – | – | – | – | – | – | – | – |
| Cc1cc(N(CCCNc2ccnc3cc(Cl)ccc23)Cc2ccc3c(c2)OCO3)nc(N2CCCCC2)n1 | 3.05 | 3.87 | – | > 100 µM | 3.28 | 3.02 | 1.12 | 3.49 | 1.2 | 1.42 | 1.58 | 1.88 | 4.06 | – | 1.35 | – | – | 1.77 | 4.84 | 2.92 |
| Cc1ccc(C2=C(c3ccc(C)cc3)C(c3ccc(C)cc3)=C(c3ccc(C)cc3)C2=O)cc1 | > 100 | > 100 | – | > 100 µM | > 100 | > 100 | – | – | – | – | – | – | – | – | – | – | – | – | – | – |
| CCn1c(=O)c2ccccc2n2c(=O)c3cc4ccccc4cc3nc12 | > 100 | > 100 | > 100 µM | > 100 µM | > 100 | > 100 | – | – | – | – | – | – | – | – | – | – | – | – | – | – |
| CC(=O)OC1CCC2C(=CCC3C2(C)C(=O)CC2(C)C(C4(C)OC(C(C)C)=CC4=O)C(O)CC32C)C1(C)C (configuration not stated) | > 100 | > 100 | – | 56.5 µM | > 10 | 32.3 | – | > 100 | – | – | – | – | – | – | – | – | – | – | – | – |
| N#Cc1ccc(Oc2cccc(Oc3ccccc3)c2)cc1C#N | – | > 100 | > 100 µM | > 100 µM | > 100 | > 100 | > 100 | > 100 | > 100 | – | > 100 | – | – | – | – | – | – | – | – | – |
| O=C(N/C(=C\c1ccc(/C=C(\NC(=O)c2ccccc2)c2nc3ccccc3s2)cc1)c1nc2ccccc2s1)c1ccccc1 | 16 | 18.6 | 5.71 µM | 5.28 µM | 30.9 | 19.1 | – | 25.6 | – | – | – | – | – | – | – | – | – | – | – | – |
| COc1ccc(-c2ccc(-c3ccc(C(=N)N)cn3)o2)cc1Cl | 3.38 | 3.63 | 5.36 µM | 3.78 µM | – | 3.78 | 1.12 | 2.44 | 1.87 | 1.73 | 1.86 | 1.81 | 3.41 | 2.29 | – | 3.45 | 11.3 | – | – | 1.42 |
| CC(=O)/C=C1\CC(=O)Nc2ccccc2N1 | > 100 | > 100 | > 100 µM | > 100 µM | > 100 | > 100 | – | > 100 | – | – | – | – | – | – | – | – | – | – | – | – |
